# Data taken from patent publication US20230406885A1, “CYCLIC PEPTIDES FOR TRAPPING INTERLEUKIN-1 BETA” (MERCK SHARP & DOHME LLC, priority 2022, published 2023).
# Where a SMILES comes first, the peptide text is derived from it. [ ]: non-standard residue; d: D form. The star is where a group is joined. Bip(4'-COOH) = N[C@@H](Cc1ccc(-c2ccc(C(=O)O)cc2)cc1)C(=O)O; 1Nal(3S-Me) = C[C@@H](c1cccc2ccccc12)[C@H](N)C(=O)O; Phe(4-COOH) = N[C@@H](Cc1ccc(C(=O)O)cc1)C(=O)O; h3Pal(5-CN) = N#Cc1cncc(CC[C@H](N)C(=O)O)c1; Pro(4R-NH2) = N[C@H]1CN[C@H](C(=O)O)C1; AEF = NCCOc1ccc(C[C@H](N)C(=O)O)cc1; Ethyl(2-morpholino) = C1CN(CC*)CCO1; hTyr = N[C@@H](CCc1ccc(O)cc1)C(=O)O; hPhe = N[C@@H](CCc1ccccc1)C(=O)O; dDab = NCC[C@@H](N)C(=O)O; Orn = NCCC[C@H](N)C(=O)O; dNMeA = CN[C@H](C)C(=O)O; Dab = NCC[C@H](N)C(=O)O; Dap = NC[C@H](N)C(=O)O; Aib = CC(C)(N)C(=O)O
# Molecular target: T1, Recombinant human IL-1β (Homo sapiens, UniProt P01584)
# T1 construct: purchased BioLegend 579404
# T1 sequence (P01584 117-269): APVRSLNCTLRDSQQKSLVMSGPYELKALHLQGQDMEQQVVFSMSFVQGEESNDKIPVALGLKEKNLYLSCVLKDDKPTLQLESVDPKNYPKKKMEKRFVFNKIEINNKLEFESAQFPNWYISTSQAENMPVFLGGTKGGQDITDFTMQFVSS
# Assay: IL-6 assay in MRC5 cells: inhibition of IL-1β induced IL-6 secretion (AlphaLISA)
# Format: cell-based
# Details: inhibition of IL-1β induced IL-6 secretion in MRC5 cells; IL-1β pre-incubated 1 hour with compound; read-out: MRC5 IC50
# How it was run: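 IL-1β at 2×EC80 in seeding medium (EMEM, 0.025% BSA) preincubated 1 h at ambient temperature with compound, then 3000 MRC5 cells/well added and incubated overnight at 37 °C, 5% CO2. IL-6 in conditioned medium quantified by AlphaLISA; IC50 from 4-parameter logistic fit.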
row,Structure (SMILES),IC50
1,CC(=O)NCCOc1ccc(C[C@@H]2NC(=O)[C@H](CCc3ccccc3)NC(=O)[C@@H](C)NC(=O)[C@H](CCN)NC(=O)[C@H](Cc3c[nH]c4ccccc34)NC(=O)[C@H](Cc3ccc(-c4ccc(C(=O)O)cc4)cc3)NC(=O)CNC(=O)[C@@H](C)N(C)C(=O)[C@H](CC(=O)O)NC(=O)[C@H]([C@@H](C)c3cccc4ccccc34)NC(=O)[C@@H]3C[C@@H](N)CN3C(=O)CNC(=O)[C@H](Cc3ccc(C(=O)O)cc3)NC(=O)[C@H](Cc3c[nH]c4ccccc34)NC2=O)cc1 [Example 115] (cyclo([AEF](Ac)W[Phe(4-COOH)]G[Pro(4R-NH2)][1Nal(3S-Me)]D[dNMeA]G[Bip(4'-COOH)]W[Dab][dA][hPhe])),0.085 nM
2,CC(=O)NCCOc1ccc(C[C@@H]2NC(=O)[C@H](CCc3ccc(O)cc3)NC(=O)[C@@H](C)NC(=O)[C@H](CCN)NC(=O)[C@H](Cc3c[nH]c4ccccc34)NC(=O)[C@H](Cc3ccc(-c4ccc(C(=O)O)cc4)cc3)NC(=O)CNC(=O)[C@@H](C)N(C)C(=O)[C@H](CC(=O)O)NC(=O)[C@H]([C@@H](C)c3cccc4ccccc34)NC(=O)[C@@H]3C[C@@H](N)CN3C(=O)CNC(=O)[C@H](Cc3ccc(C(=O)O)cc3)NC(=O)[C@H](Cc3c[nH]c4ccccc34)NC2=O)cc1 [Example 116] (cyclo([AEF](Ac)W[Phe(4-COOH)]G[Pro(4R-NH2)][1Nal(3S-Me)]D[dNMeA]G[Bip(4'-COOH)]W[Dab][dA][hTyr])),0.492 nM

# Same assay, conditions: inhibition of IL-1β induced IL-6 secretion in MRC5 cells; read-out: MRC5 IC50
row,Structure (SMILES),IC50
1,CC(=O)NCCOc1ccc(C[C@@H]2NC(=O)[C@H](CCc3ccc(O)cc3)NC(=O)C(C)(C)NC(=O)[C@H](CN)NC(=O)[C@H](Cc3c[nH]c4ccccc34)NC(=O)[C@H](Cc3ccc(-c4ccc(C(=O)O)cc4)cc3)NC(=O)CNC(=O)[C@@H](C)N(C)C(=O)[C@H](CC(=O)O)NC(=O)[C@H]([C@@H](C)c3cccc4ccccc34)NC(=O)[C@@H]3C[C@@H](N)CN3C(=O)CNC(=O)[C@H](Cc3ccc(C(=O)O)cc3)NC(=O)[C@H](Cc3c[nH]c4ccccc34)NC2=O)cc1 [Example 117] (cyclo([AEF](Ac)W[Phe(4-COOH)]G[Pro(4R-NH2)][1Nal(3S-Me)]D[dNMeA]G[Bip(4'-COOH)]W[Dap][Aib][hTyr])),0.16 nM
2,CC(=O)NCCOc1ccc(C[C@@H]2NC(=O)[C@H](C)NC(=O)[C@@H](C)NC(=O)[C@H](CN)NC(=O)[C@H](Cc3c[nH]c4ccccc34)NC(=O)[C@H](Cc3ccc(-c4ccc(C(=O)O)cc4)cc3)NC(=O)CNC(=O)[C@@H](C)N(C)C(=O)[C@H](CC(=O)O)NC(=O)[C@H]([C@@H](C)c3cccc4ccccc34)NC(=O)[C@@H]3C[C@@H](N)CN3C(=O)CNC(=O)[C@H](Cc3ccc(C(=O)O)cc3)NC(=O)[C@H](Cc3c[nH]c4ccccc34)NC2=O)cc1 [Example 118] (cyclo([AEF](Ac)W[Phe(4-COOH)]G[Pro(4R-NH2)][1Nal(3S-Me)]D[dNMeA]G[Bip(4'-COOH)]W[Dap][dA]A)),0.973 nM
3,CC(=O)NCCOc1ccc(C[C@@H]2NC(=O)[C@H](CCc3ccc(O)cc3)NC(=O)[C@@H](C)NC(=O)[C@H](CN)NC(=O)[C@H](Cc3c[nH]c4ccccc34)NC(=O)[C@H](Cc3ccc(-c4ccc(C(=O)O)cc4)cc3)NC(=O)CNC(=O)[C@@H](C)N(C)C(=O)[C@H](CC(=O)O)NC(=O)[C@H]([C@@H](C)c3cccc4ccccc34)NC(=O)[C@@H]3C[C@@H](N)CN3C(=O)CNC(=O)[C@H](Cc3ccc(C(=O)O)cc3)NC(=O)[C@H](Cc3c[nH]c4ccccc34)NC2=O)cc1 [Example 119] (cyclo([AEF](Ac)W[Phe(4-COOH)]G[Pro(4R-NH2)][1Nal(3S-Me)]D[dNMeA]G[Bip(4'-COOH)]W[Dap][dA][hTyr])),0.0602 nM
4,CC(=O)NCCOc1ccc(C[C@@H]2NC(=O)[C@H](Cc3ccc(OCCN4CCOCC4)cc3)NC(=O)[C@@H](C)NC(=O)[C@H](CN)NC(=O)[C@H](Cc3c[nH]c4ccccc34)NC(=O)[C@H](Cc3ccc(-c4ccc(C(=O)O)cc4)cc3)NC(=O)CNC(=O)[C@@H](C)N(C)C(=O)[C@H](CC(=O)O)NC(=O)[C@H]([C@@H](C)c3cccc4ccccc34)NC(=O)[C@@H]3C[C@@H](N)CN3C(=O)CNC(=O)[C@H](Cc3ccc(C(=O)O)cc3)NC(=O)[C@H](Cc3c[nH]c4ccccc34)NC2=O)cc1 [Example 120] (cyclo([AEF](Ac)W[Phe(4-COOH)]G[Pro(4R-NH2)][1Nal(3S-Me)]D[dNMeA]G[Bip(4'-COOH)]W[Dap][dA]Y(Ethyl(2-morpholino)))),0.86 nM
5,CC(=O)NCCOc1ccc(C[C@@H]2NC(=O)[C@H](CCc3ccc(O)cc3)NC(=O)[C@@H](C)N(C)C(=O)[C@H](CN)NC(=O)[C@H](Cc3c[nH]c4ccccc34)NC(=O)[C@H](Cc3ccc(-c4ccc(C(=O)O)cc4)cc3)NC(=O)CNC(=O)[C@@H](C)N(C)C(=O)[C@H](CC(=O)O)NC(=O)[C@H]([C@@H](C)c3cccc4ccccc34)NC(=O)[C@@H]3C[C@@H](N)CN3C(=O)CNC(=O)[C@H](Cc3ccc(C(=O)O)cc3)NC(=O)[C@H](Cc3c[nH]c4ccccc34)NC2=O)cc1 [Example 121] (cyclo([AEF](Ac)W[Phe(4-COOH)]G[Pro(4R-NH2)][1Nal(3S-Me)]D[dNMeA]G[Bip(4'-COOH)]W[Dap][dNMeA][hTyr])),0.085 nM
6,CC(=O)NCCOc1ccc(C[C@@H]2NC(=O)[C@H](CCc3cncc(C#N)c3)NC(=O)[C@@H](CCN)NC(=O)CNC(=O)[C@H](Cc3c[nH]c4ccccc34)NC(=O)[C@H](Cc3ccc(-c4ccc(C(=O)O)cc4)cc3)NC(=O)CNC(=O)[C@@H](C)N(C)C(=O)[C@H](CC(=O)O)NC(=O)[C@H]([C@@H](C)c3cccc4ccccc34)NC(=O)[C@@H]3C[C@@H](N)CN3C(=O)CNC(=O)[C@H](Cc3ccc(C(=O)O)cc3)NC(=O)[C@H](Cc3c[nH]c4ccccc34)NC2=O)cc1 [Example 122] (cyclo([AEF](Ac)W[Phe(4-COOH)]G[Pro(4R-NH2)][1Nal(3S-Me)]D[dNMeA]G[Bip(4'-COOH)]WG[dDab][h3Pal(5-CN)])),0.0248 nM
7,CC(=O)NCCOc1ccc(C[C@@H]2NC(=O)[C@H](CCc3ccc(O)cc3)NC(=O)[C@@H](CCN)NC(=O)CNC(=O)[C@H](Cc3c[nH]c4ccccc34)NC(=O)[C@H](Cc3ccc(-c4ccc(C(=O)O)cc4)cc3)NC(=O)CNC(=O)[C@@H](C)N(C)C(=O)[C@H](CC(=O)O)NC(=O)[C@H]([C@@H](C)c3cccc4ccccc34)NC(=O)[C@@H]3C[C@@H](N)CN3C(=O)CNC(=O)[C@H](Cc3ccc(C(=O)O)cc3)NC(=O)[C@H](Cc3c[nH]c4ccccc34)NC2=O)cc1 [Example 123] (cyclo([AEF](Ac)W[Phe(4-COOH)]G[Pro(4R-NH2)][1Nal(3S-Me)]D[dNMeA]G[Bip(4'-COOH)]WG[dDab][hTyr])),0.0457 nM
8,CC(=O)NCCOc1ccc(C[C@@H]2NC(=O)[C@H](C)NC(=O)[C@@H](C)NC(=O)[C@H](CC(C)C)NC(=O)[C@H](Cc3c[nH]c4ccccc34)NC(=O)[C@H](Cc3ccc(-c4ccc(C(=O)O)cc4)cc3)NC(=O)CNC(=O)[C@@H](C)N(C)C(=O)[C@H](CC(=O)O)NC(=O)[C@H]([C@@H](C)c3cccc4ccccc34)NC(=O)[C@@H]3C[C@@H](N)CN3C(=O)CNC(=O)[C@H](Cc3ccc(C(=O)O)cc3)NC(=O)[C@H](Cc3c[nH]c4ccccc34)NC2=O)cc1 [Example 124] (cyclo([AEF](Ac)W[Phe(4-COOH)]G[Pro(4R-NH2)][1Nal(3S-Me)]D[dNMeA]G[Bip(4'-COOH)]WL[dA]A)),0.636 nM
9,CC(=O)NCCOc1ccc(C[C@@H]2NC(=O)[C@H](CCc3ccc(O)cc3)NC(=O)[C@@H](C)NC(=O)[C@H](CC(C)C)NC(=O)[C@H](Cc3c[nH]c4ccccc34)NC(=O)[C@H](Cc3ccc(-c4ccc(C(=O)O)cc4)cc3)NC(=O)CNC(=O)[C@@H](C)N(C)C(=O)[C@H](CC(=O)O)NC(=O)[C@H]([C@@H](C)c3cccc4ccccc34)NC(=O)[C@@H]3C[C@@H](N)CN3C(=O)CNC(=O)[C@H](Cc3ccc(C(=O)O)cc3)NC(=O)[C@H](Cc3c[nH]c4ccccc34)NC2=O)cc1 [Example 125] (cyclo([AEF](Ac)W[Phe(4-COOH)]G[Pro(4R-NH2)][1Nal(3S-Me)]D[dNMeA]G[Bip(4'-COOH)]WL[dA][hTyr])),0.064 nM
10,CC(=O)NCCOc1ccc(C[C@@H]2NC(=O)[C@H](CCc3ccc(O)cc3)NC(=O)[C@@H](CCN)NC(=O)[C@H](CC(C)C)NC(=O)[C@H](Cc3c[nH]c4ccccc34)NC(=O)[C@H](Cc3ccc(-c4ccc(C(=O)O)cc4)cc3)NC(=O)CNC(=O)[C@@H](C)N(C)C(=O)[C@H](CC(=O)O)NC(=O)[C@H]([C@@H](C)c3cccc4ccccc34)NC(=O)[C@@H]3C[C@@H](N)CN3C(=O)CNC(=O)[C@H](Cc3ccc(C(=O)O)cc3)NC(=O)[C@H](Cc3c[nH]c4ccccc34)NC2=O)cc1 [Example 126] (cyclo([AEF](Ac)W[Phe(4-COOH)]G[Pro(4R-NH2)][1Nal(3S-Me)]D[dNMeA]G[Bip(4'-COOH)]WL[dDab][hTyr])),0.37 nM
11,CC(=O)NCCOc1ccc(C[C@@H]2NC(=O)[C@H](CCc3ccc(O)cc3)NC(=O)C(C)(C)NC(=O)[C@H](CCCN)NC(=O)[C@H](Cc3c[nH]c4ccccc34)NC(=O)[C@H](Cc3ccc(-c4ccc(C(=O)O)cc4)cc3)NC(=O)CNC(=O)[C@@H](C)N(C)C(=O)[C@H](CC(=O)O)NC(=O)[C@H]([C@@H](C)c3cccc4ccccc34)NC(=O)[C@@H]3C[C@@H](N)CN3C(=O)CNC(=O)[C@H](Cc3ccc(C(=O)O)cc3)NC(=O)[C@H](Cc3c[nH]c4ccccc34)NC2=O)cc1 [Example 127] (cyclo([AEF](Ac)W[Phe(4-COOH)]G[Pro(4R-NH2)][1Nal(3S-Me)]D[dNMeA]G[Bip(4'-COOH)]W[Orn][Aib][hTyr])),0.432 nM
12,CC(=O)NCCOc1ccc(C[C@@H]2NC(=O)[C@H](CCc3ccc(O)cc3)NC(=O)[C@@H](C)NC(=O)[C@H](CO)NC(=O)[C@H](Cc3c[nH]c4ccccc34)NC(=O)[C@H](Cc3ccc(-c4ccc(C(=O)O)cc4)cc3)NC(=O)CNC(=O)[C@@H](C)N(C)C(=O)[C@H](CC(=O)O)NC(=O)[C@H]([C@@H](C)c3cccc4ccccc34)NC(=O)[C@@H]3C[C@@H](N)CN3C(=O)CNC(=O)[C@H](Cc3ccc(C(=O)O)cc3)NC(=O)[C@H](Cc3c[nH]c4ccccc34)NC2=O)cc1 [Example 128] (cyclo([AEF](Ac)W[Phe(4-COOH)]G[Pro(4R-NH2)][1Nal(3S-Me)]D[dNMeA]G[Bip(4'-COOH)]WS[dA][hTyr])),0.09 nM
